Patent US8986650B2, “Complex folate-NOTA-Ga68” (Guerbet, priority 2005, dated 2015)
Read-outs that look alike come from different tables or passages of the source. Blank lines part the entries; values can stand above or below the molecule they belong to.

Key:
KB tumor cells (FR+) [1] = test system: KB tumor cells (FR+)
Method: Nude mice bearing KB-tumors were used for this study.
The NODAGA-LINKER-FOLATE derivative was labeled with ^67Ga by incubation at RT with 37 MBq of ^67GaCl3 in HEPES buffer. […] It was diluted with 0.9% NaCl at a concentration of 4 nmol/ml and this solution was injected to the mice (100 μl/0.4 nmol/mouse).
One week before the tumor cell inoculation all mice were put under a folate low diet (SAFE company, semi-synthetic product with 50 μg/kg of folate) until the end of the study.
At D0, the tumor inoculation was performed as follow: One million (10^6) of KB tumor cells (FR+) resuspended at 1×10^7 cells/ml in sterile PBS 0.01M, pH 7.4, were subcutaneously inoculated in the right flank of the nude mice in a volume of 100 μl. The tumors were allowed to grow for 8-9 days. For the in vivo evaluation the mice were grouped in groups of 3 mice per group.
At D9 biodistribution studies were performed for the ^67Ga-NODAGA-LINKER-FOLATE (compound 2′ complexed by Ga67) in groups of mice as follow: • 3 groups: injection with ^67Ga-NODAGA-LINKER-FOLATE (compound 2′ complexed by Ga67) (0.4 nmol/10 μCi/100 μl/mouse) • 1 group: injection of Folic acid (40 nmol/100 μl/mouse) 5 min before the injection of ^67Ga-NODAGA-LINKER-FOLATE (compound 2′ complexed by Ga67) • 1 group: injection of Alimta (400 μg/100 μl/mouse) 1 h before the injection of ^67Ga-NODAGA-LINKER-FOLATE (compound 2′ complexed by Ga67) • Time points: 2 h, 4 h, 4 h (blocking with FA), 4 h (kidney blocking with Alimta), 24 h p.i. Results

ovarian cancer = details: patients, phase I/II study; cited from earlier work
[2] = Parotid gland uptake in normal mice without folate-free diet; type: in vivo; details: no folate-free diet
KB tumor cells (FR+) [3] = test: Biodistribution of NODAGA-LINKER-FOLATE-Ga68 in nude mice bearing KB-tumors; type: in vivo; details: for Ratio tumor:blood / Ratio tumor:bone / Ratio tumor:kidney / Ratio tumor:liver / Ratio tumor:muscle / Ratio tumor:pancreas / Ratio tumor:parotid: 1 h post-injection
Method: The NODAGA-LINKER-FOLATE derivative was labeled with ^68Ga using the Modular-Lab automatic system by Eckert & Ziegler.
NODAGA-LINKER-FOLATE-Ga68 compound (compound 2) was obtained in radiochemical purity preferably >92 to >98%.
At D0, the tumor inoculation was performed as follow: One million (10^6) of KB tumor cells (FR+) resuspended at 1×10^7 cells/ml in sterile PBS 0.01M, pH 7.4, were subcutaneously inoculated in the right flank of the nude mice in a volume of 100 μl.
At D8 biodistribution studies and PET/CT images were performed for NODAGA-folate-Ga68 (compound 2) in 2 groups of mice as follow: • 1 group: injection with NODAGA-LINKER-FOLATE-Ga68 (compound 2) (0.4 nmol/2 MBq/100 μl/mouse) • 1 group: injection of Alimta (400 μg/100 μl/mouse) 1 h before the injection of NODAGA-LINKER-FOLATE-Ga68 (compound 2) • Time point: 1 h p.i.

OVCAR-3 tumors = test: Biodistribution and PET/CT imaging in mice model bearing OVCAR-3 tumor; type: in vivo, SCID mice
Method: Similar protocol was used for OVCAR-3 tumor models.
For the kidney blocking the antifolate Alimta, at a concentration of 4 mg/ml in PBS pH 7.4 was used.
For the Folate Receptors blocking Folic acid in 100-fold excess (400 nmol/ml) in PBS pH 7.4 was used.

[4] = 4 h Alimta pre-injection (400 μg/mouse, 1 h)
[5] = 4 h blocking with Folic acid (100-fold excess, 5 min pre-injection)
[6] = Group 1: Alimta 400 μg/mouse 1 h pre-injection

Biodistribution, Parotid gland (KB tumor cells (FR+) [1]; 2 h): 9.10 ± 3.39
Biodistribution, adrenal (KB tumor cells (FR+) [1]; 2 h): 3.09 ± 0.52
Biodistribution, blood (KB tumor cells (FR+) [1]; 2 h): 0.09 ± 0.02
Biodistribution, intestine (KB tumor cells (FR+) [1]; 2 h): 0.50 ± 0.12
Biodistribution, kidney (KB tumor cells (FR+) [1]; 2 h): 142.14 ± 15.46
Biodistribution, liver (KB tumor cells (FR+) [1]; 2 h): 1.38 ± 0.50
Biodistribution, lung (KB tumor cells (FR+) [1]; 2 h): 1.32 ± 0.15
Biodistribution, muscle (KB tumor cells (FR+) [1]; 2 h): 1.49 ± 0.18
Biodistribution, pancreas (KB tumor cells (FR+) [1]; 2 h): 2.91 ± 0.08
Biodistribution, pituitary (KB tumor cells (FR+) [1]; 2 h): 0.53 ± 0.24
Biodistribution, spleen (KB tumor cells (FR+) [1]; 2 h): 0.48 ± 0.11
Biodistribution, stomach (KB tumor cells (FR+) [1]; 2 h): 1.58 ± 0.12
Biodistribution, Parotid gland (KB tumor cells (FR+) [1]; 4 h): 8.58 ± 2.33
Biodistribution, adrenal (KB tumor cells (FR+) [1]; 4 h): 2.80 ± 0.10
Biodistribution, blood (KB tumor cells (FR+) [1]; 4 h): 0.06 ± 0.01
Biodistribution, intestine (KB tumor cells (FR+) [1]; 4 h): 0.43 ± 0.16
Biodistribution, kidney (KB tumor cells (FR+) [1]; 4 h): 130.31 ± 14.65
Biodistribution, liver (KB tumor cells (FR+) [1]; 4 h): 1.07 ± 0.18
Biodistribution, lung (KB tumor cells (FR+) [1]; 4 h): 1.36 ± 0.37
Biodistribution, muscle (KB tumor cells (FR+) [1]; 4 h): 2.12 ± 0.31
Biodistribution, pancreas (KB tumor cells (FR+) [1]; 4 h): 2.92 ± 0.11
Biodistribution, pituitary (KB tumor cells (FR+) [1]; 4 h): 0.79 ± 0.74
Biodistribution, spleen (KB tumor cells (FR+) [1]; 4 h): 0.46 ± 0.10
Biodistribution, stomach (KB tumor cells (FR+) [1]; 4 h): 1.47 ± 0.08
Biodistribution, Parotid gland (KB tumor cells (FR+) [1]; [4]): 6.10 ± 2.09
Biodistribution, adrenal (KB tumor cells (FR+) [1]; [4]): 1.75 ± 0.23
Biodistribution, blood (KB tumor cells (FR+) [1]; [4]): 0.04 ± 0.01
Biodistribution, intestine (KB tumor cells (FR+) [1]; [4]): 0.50 ± 0.37
Biodistribution, kidney (KB tumor cells (FR+) [1]; [4]): 19.13 ± 6.66
Biodistribution, liver (KB tumor cells (FR+) [1]; [4]): 0.88 ± 0.26
Biodistribution, lung (KB tumor cells (FR+) [1]; [4]): 0.68 ± 0.18
Biodistribution, muscle (KB tumor cells (FR+) [1]; [4]): 1.26 ± 0.38
Biodistribution, pancreas (KB tumor cells (FR+) [1]; [4]): 2.20 ± 0.69
Biodistribution, pituitary (KB tumor cells (FR+) [1]; [4]): 0.59 ± 0.41
Biodistribution, spleen (KB tumor cells (FR+) [1]; [4]): 0.31 ± 0.13
Biodistribution, stomach (KB tumor cells (FR+) [1]; [4]): 0.84 ± 0.31
Biodistribution, Parotid gland (KB tumor cells (FR+) [1]; [5]): 0.18 ± 0.06
Biodistribution, adrenal (KB tumor cells (FR+) [1]; [5]): 0.02 ± 0.01
Biodistribution, blood (KB tumor cells (FR+) [1]; [5]): 0.00 ± 0.00
Biodistribution, intestine (KB tumor cells (FR+) [1]; [5]): 0.08 ± 0.07
Biodistribution, kidney (KB tumor cells (FR+) [1]; [5]): 6.49 ± 1.03
Biodistribution, liver (KB tumor cells (FR+) [1]; [5]): 0.06 ± 0.00
Biodistribution, lung (KB tumor cells (FR+) [1]; [5]): 0.06 ± 0.00
Biodistribution, muscle (KB tumor cells (FR+) [1]; [5]): 0.03 ± 0.00
Biodistribution, pancreas (KB tumor cells (FR+) [1]; [5]): 0.05 ± 0.00
Biodistribution, pituitary (KB tumor cells (FR+) [1]; [5]): −0.02 ± 0.01
Biodistribution, spleen (KB tumor cells (FR+) [1]; [5]): 0.04 ± 0.01
Biodistribution, stomach (KB tumor cells (FR+) [1]; [5]): 0.09 ± 0.06
Biodistribution, Parotid gland (KB tumor cells (FR+) [1]; 24 h): 5.57 ± 0.82
Biodistribution, adrenal (KB tumor cells (FR+) [1]; 24 h): 5.04 ± 5.96
Biodistribution, blood (KB tumor cells (FR+) [1]; 24 h): 0.04 ± 0.02
Biodistribution, intestine (KB tumor cells (FR+) [1]; 24 h): 0.37 ± 0.13
Biodistribution, kidney (KB tumor cells (FR+) [1]; 24 h): 97.62 ± 11.59
Biodistribution, liver (KB tumor cells (FR+) [1]; 24 h): 0.87 ± 0.16
Biodistribution, lung (KB tumor cells (FR+) [1]; 24 h): 0.94 ± 0.31
Biodistribution, muscle (KB tumor cells (FR+) [1]; 24 h): 1.14 ± 0.01
Biodistribution, pancreas (KB tumor cells (FR+) [1]; 24 h): 2.37 ± 0.17
Biodistribution, pituitary (KB tumor cells (FR+) [1]; 24 h): 0.41 ± 0.39
Biodistribution, spleen (KB tumor cells (FR+) [1]; 24 h): 0.37 ± 0.13
Biodistribution, stomach (KB tumor cells (FR+) [1]; 24 h): 1.01 ± 0.10
Time of maximum tumor uptake (KB tumor cells (FR+) [1]; KB-tumor bearing nude mice): 2 h p.i.
Tumor uptake (KB tumor cells (FR+) [1]; at 24 h p.i.): remains high
Specificity of tumor uptake (KB tumor cells (FR+) [1]; blocking experiment with folic acid): specific
Kidney uptake (KB tumor cells (FR+) [1]; with the use of Alimta): significantly reduced
Tumor uptake (KB tumor cells (FR+) [1]; with the use of Alimta): remained the same
Compound: Nc1nc2ncc(CNc3ccc(C(=O)N[C@@H](CCC(=O)NCCNC(=O)CCC(C(=O)[O-])N4CCN(CC(=O)[O-])CCN(CC(=O)[O-])CC4)C(=O)O)cc3)nc2c(=O)[nH]1.[67Ga+3] (some centres unmarked) [NODAGA-LINKER-FOLATE-Ga67]

Compound: Nc1nc2ncc(CNc3ccc(C(=O)N[C@@H](CCC(=O)NCCNC(=O)CN(CCN(CCN(CC(=O)[O-])CC(=O)[O-])CC(=O)[O-])CC(=O)[O-])C(=O)O)cc3)nc2c(=O)[nH]1.[111In] [111In-DTPA-folate]
Target-tissue uptake and non target-tissue clearance (ovarian cancer): rapid target-tissue uptake and non target-tissue clearance

High uptake in the parotid gland [2]: This was not the case
Ratio tumor:blood (KB tumor cells (FR+) [3]; [6]): 49.33
Ratio tumor:bone (KB tumor cells (FR+) [3]; [6]): 20.96
Ratio tumor:kidney (KB tumor cells (FR+) [3]; [6]): 0.69
Ratio tumor:liver (KB tumor cells (FR+) [3]; [6]): 10.49
Ratio tumor:muscle (KB tumor cells (FR+) [3]; [6]): 13.32
Ratio tumor:pancreas (KB tumor cells (FR+) [3]; [6]): 9.30
Ratio tumor:parotid (KB tumor cells (FR+) [3]; [6]): 2.63
Ratio tumor:blood (KB tumor cells (FR+) [3]; Group 2: no Alimta): 64.85
Ratio tumor:bone (KB tumor cells (FR+) [3]; Group 2: no Alimta): 28.11
Ratio tumor:kidney (KB tumor cells (FR+) [3]; Group 2: no Alimta): 0.17
Ratio tumor:liver (KB tumor cells (FR+) [3]; Group 2: no Alimta): 6.64
Ratio tumor:muscle (KB tumor cells (FR+) [3]; Group 2: no Alimta): 9.95
Ratio tumor:pancreas (KB tumor cells (FR+) [3]; Group 2: no Alimta): 6.89
Ratio tumor:parotid (KB tumor cells (FR+) [3]; Group 2: no Alimta): 1.72
Uptake in the parotid gland (KB tumor cells (FR+) [3]; KB-tumor mice under folate-free diet): High uptake
PET/CT images: background (OVCAR-3 tumors; 1 h post injection): negligible background
PET/CT images: kidneys (OVCAR-3 tumors; 1 h post injection): high uptake in the kidneys
Compound: Nc1nc2ncc(CNc3ccc(C(=O)N[C@@H](CCC(=O)NCCNC(=O)CCC(C(=O)O)N4CCN(CC(=O)O)CCN(CC(=O)O)CC4)C(=O)O)cc3)nc2c(=O)[nH]1 (some centres unmarked) [NODAGA-LINKER-FOLATE-Ga68, folate-NODAGA-Ga68, metal not drawn]
PET/CT images: tumors (OVCAR-3 tumors; 1 h post injection): clear visualization of the tumors
Quality of PET/CT images (OVCAR-3 tumors; mouse, in vivo): Very satisfying
